As a reminder, the IC50 is the concentration that inhibits the measured activity by half.

Consider 32 molecules from patent US8710043B2, “TRPM8 antagonists and their use in treatments” (Amgen Inc., priority 2011, dated 2014).

For the assay, the target named is T1, human TRPM8 (Homo sapiens, UniProt Q7Z2W7).
T1 construct: expressed in transfected cells; host or cells: Chinese hamster ovary (CHO) cells, T-REx tetracycline-inducible system, co-transfected with aequorin
Briefly: Luminescence readout assay for measuring intracellular calcium, icilin activation. The following applies: CHO cells expressing human TRPM8, aequorin luminescence, 1 μM icilin activation; read-out: hTRPM8 IC50. It counts as cell-based. The procedure, abridged:
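The read-out was luminescence reporting intracellular calcium, recorded by a CCD-based luminometer. Compounds were preincubated for 2.5 min before agonist challenge with 1 μM icilin. Human TRPM8 was expressed in a stable T-REx CHO line, induced with 0.5 μg/mL tetracycline the day before.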
In general terms: A change in cytosolic calcium serves as a functional read-out for many receptors and channels.

T1 sequence (Q7Z2W7 whole entry): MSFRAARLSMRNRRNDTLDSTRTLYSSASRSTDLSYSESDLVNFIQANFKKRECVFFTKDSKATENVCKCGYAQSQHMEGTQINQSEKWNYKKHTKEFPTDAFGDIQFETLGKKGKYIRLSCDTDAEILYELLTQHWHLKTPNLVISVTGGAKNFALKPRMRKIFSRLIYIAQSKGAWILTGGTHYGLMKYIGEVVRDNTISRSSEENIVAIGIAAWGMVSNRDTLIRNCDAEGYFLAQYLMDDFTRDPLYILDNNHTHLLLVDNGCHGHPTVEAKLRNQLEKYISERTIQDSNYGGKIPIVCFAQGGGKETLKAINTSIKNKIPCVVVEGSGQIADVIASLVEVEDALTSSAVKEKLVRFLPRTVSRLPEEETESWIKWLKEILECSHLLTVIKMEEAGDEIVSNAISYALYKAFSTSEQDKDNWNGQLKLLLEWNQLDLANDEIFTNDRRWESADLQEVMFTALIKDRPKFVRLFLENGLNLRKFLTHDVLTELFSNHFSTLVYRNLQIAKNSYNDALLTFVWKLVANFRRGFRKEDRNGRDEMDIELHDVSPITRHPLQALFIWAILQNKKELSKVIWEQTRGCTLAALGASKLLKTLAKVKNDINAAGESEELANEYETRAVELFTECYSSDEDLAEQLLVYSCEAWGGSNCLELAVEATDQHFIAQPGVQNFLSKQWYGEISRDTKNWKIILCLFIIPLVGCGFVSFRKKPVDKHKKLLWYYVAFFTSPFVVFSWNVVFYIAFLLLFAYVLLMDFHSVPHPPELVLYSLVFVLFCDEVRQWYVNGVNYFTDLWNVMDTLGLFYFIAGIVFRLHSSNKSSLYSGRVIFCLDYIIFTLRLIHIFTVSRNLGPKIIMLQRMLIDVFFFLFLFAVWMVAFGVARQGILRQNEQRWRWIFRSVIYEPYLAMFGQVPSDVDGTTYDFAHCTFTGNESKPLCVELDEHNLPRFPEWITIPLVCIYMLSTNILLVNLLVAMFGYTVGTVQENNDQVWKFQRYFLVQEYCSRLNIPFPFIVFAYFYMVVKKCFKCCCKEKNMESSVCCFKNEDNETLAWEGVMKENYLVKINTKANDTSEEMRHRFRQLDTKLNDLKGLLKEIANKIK

For `O=C(N[C@@H](c1ccc(C(F)(F)F)cc1)c1ncccc1C(F)(F)F)[C@H]1CC[C@@H](CO)CC1` [Example 241, (1s,4R)-4-(hydroxymethyl)-N-((S)-(4-(trifluoromethyl)phenyl)(3-(trifluoromethyl)pyridin-2-yl)methyl)cyclohexanecarboxamide], the IC50 was determined as 590 nM.
As to `Cn1cc(C(=O)N[C@@H](c2ccc(OC(F)(F)F)cc2)c2ccccn2)ccc1=O` [Example 378, (S)-1-methyl-6-oxo-N-(pyridin-2-yl(4-(trifluoromethoxy)phenyl)methyl)-1,6-dihydropyridine-3-carboxamide], the IC50 came to 50.3 nM.
With `O=C1CCc2cc(C(=O)N[C@@H](c3ccc(OC(F)(F)F)c(F)c3)c3ncccc3F)ccc2N1` [Example 351, (S)-N-((3-fluoro-4-(trifluoromethoxy)phenyl)(3-fluoropyridin-2-yl)methyl)-2-oxo-1,2,3,4-tetrahydroquinoline-6-carboxamide], the IC50 was 15.9 nM.
With `O=C(O)c1ccc(C(=O)N[C@@H](c2ccc(C(F)(F)F)cc2)c2ncccc2F)nc1` [Example 280, (S)-6-(((3-Fluoropyridin-2-yl)(4-(trifluoromethyl)phenyl)-methyl)carbamoyl)nicotinic Acid], the IC50 worked out at 22.1 nM.
The same measure for `O=C(N[C@@H](c1ccc(C(F)(F)F)cc1)c1ncccc1C(F)(F)F)c1ccncc1` [Example 178, (S)-N-((4-(trifluoromethyl)phenyl)(3-(trifluoromethyl)pyridin-2-yl)methyl)isonicotinamide]: 26.2 nM; for `O=C(O)Cn1cc(C(=O)N[C@@H](c2ccc(OC(F)(F)F)c(F)c2)c2ncccc2F)ccc1=O` [Example 428, (S)-2-(5-(((3-Fluoro-4-(trifluoromethoxy)phenyl)(3-fluoropyridin-2-yl)methyl)carbamoyl)-2-oxopyridin-1(2H)-yl)acetic Acid]: 1290 nM.
As for `O=C(N[C@@H](c1ccc(C(F)(F)F)cc1)c1ncccc1C(F)(F)F)c1ccc2c(Cl)ccnc2c1` [Example 110, (S)-4-chloro-N-((4-(trifluoromethyl)phenyl)(3-(trifluoromethyl)pyridin-2-yl)methyl)quinoline-7-carboxamide 2,2,2-trifluoroacetate], the IC50 amounted to 64.4 nM.
The same measure for `O=C(N[C@@H](c1ccc(C(F)(F)F)cc1)c1ncccc1C(F)(F)F)c1cccc(=O)[nH]1` [Example 63, (S)-6-oxo-N-((4-(trifluoromethyl)phenyl)(3-(trifluoromethyl)pyridin-2-yl)methyl)-1,6-dihydropyridine-2-carboxamide]: 134 nM; for `O=C1Cc2cc(C(=O)N[C@@H](c3ccc(C(F)(F)F)cc3)c3ncccc3C(F)(F)F)ccc2N1` [Example 56, (S)-2-oxo-N-((4-(trifluoromethyl)phenyl)(3-(trifluoromethyl)pyridin-2-yl)methyl)indoline-5-carboxamide]: 9.2 nM; for `O=C(N[C@@H](c1ccc(OC(F)(F)F)cc1)c1ncccc1F)c1cc2n(n1)CCCO2` [Example 356, (S)-N-((3-fluoropyridin-2-yl)(4-(trifluoromethoxy)phenyl)methyl)-6,7-dihydro-5H-pyrazolo[5,1-b][1,3]oxazine-2-carboxamide]: 78.4 nM.
The same measure for `N#Cc1cc(C(=O)N[C@@H](c2ccc(C(F)(F)F)cc2)c2ncccc2F)c[nH]c1=O` [Example 277, (S)-5-Cyano-N-((3-fluoropyridin-2-yl)(4-(trifluoromethyl)-phenyl)methyl)-6-oxo-1,6-dihydropyridine-3-carboxamide]: 188 nM; for `O=C(N[C@@H](c1ccc(C(F)(F)F)cc1)c1ncccc1F)c1cnc(Cl)c(Br)c1` [Example 198, (S)-5-bromo-6-chloro-N-((3-fluoropyridin-2-yl)(4-(trifluoromethyl)phenyl)methyl)nicotinamide]: 56 nM; for `O=C(N[C@@H](c1ccc(C(F)(F)F)cc1)c1ncccc1C(F)(F)F)c1ccoc1` [Example 199, (S)-N-((4-(trifluoromethyl)phenyl)(3-(trifluoromethyl)pyridin-2-yl)methyl)furan-3-carboxamide]: 77.6 nM.
The same measure for `COc1ccc([C@H](NC(=O)c2ccc(=O)n(C)c2)c2ncccc2F)cc1F` [Example 337, (S)-N-((3-fluoro-4-methoxyphenyl)(3-fluoropyridin-2-yl)methyl)-1-methyl-6-oxo-1,6-dihydropyridine-3-carboxamide]: 313 nM; for `O=C1Cc2cc(C(=O)N[C@@H](c3ccc(C(F)(F)F)cc3)c3ncccc3F)ccc2N1` [Example 70, (S)-N-((3-fluoropyridin-2-yl)(4-(trifluoromethyl)phenyl)methyl)-2-oxoindoline-5-carboxamide]: 15.2 nM.
`O=C(N[C@@H](c1ccc(OC(F)(F)F)c(F)c1)c1ncccc1F)c1ccc(=O)n(C[C@@H](O)C(F)(F)F)c1` [Example 409, N-((S)-(3-fluoro-4-(trifluoromethoxy)phenyl)(3-fluoropyridin-2-yl)methyl)-6-oxo-1-((R)-3,3,3-trifluoro-2-hydroxypropyl)-1,6-dihydropyridine-3-carboxamide]: the IC50 came to 89.2 nM.
`COCCC(=O)N[C@@H](c1ccc(C(F)(F)F)cc1)c1ncccc1C(F)(F)F` [Example 224, (S)-3-methoxy-N-((4-(trifluoromethyl)phenyl)(3-(trifluoromethyl)pyridin-2-yl)methyl)propanamide]: the IC50 was 1400 nM.
Take `COc1ccncc1C(=O)N[C@@H](c1ccc(C(F)(F)F)cc1)c1ncccc1C(F)(F)F` [Example 55, (S)-4-methoxy-N-((4-(trifluoromethyl)phenyl)(3-(trifluoromethyl)pyridin-2-yl)methyl)nicotinamide]: the IC50 amounted to 30.4 nM.
The same measure for `COc1ccc([C@H](NC(=O)c2ccc(=O)n(C)c2)c2ncccc2F)cc1` [Example 343, (S)-N-((3-fluoropyridin-2-yl)(4-methoxyphenyl)methyl)-1-methyl-6-oxo-1,6-dihydropyridine-3-carboxamide]: 1480 nM; for `CC(C)(C)c1cccnc1[C@@H](NC(=O)c1ccc2cccnc2c1)c1ccc(C(F)(F)F)cc1` [Example 286, (S)—N-((3-(tert-Butyl)pyridin-2-yl)(4-(trifluoromethyl)phenyl)-methyl)quinoline-7-carboxamide 2,2,2-trifluoroacetate]: 1110 nM; for `COc1ccnc(C(NC(=O)c2ccc(=O)[nH]c2)c2ccc(OC(F)(F)F)c(F)c2)c1` (centres unmarked) [Example 422, N-((3-fluoro-4-(trifluoromethoxy)phenyl)(4-methoxypyridin-2-yl)methyl)-6-oxo-1,6-dihydropyridine-3-carboxamide]: 841 nM.
For `O=C(N[C@@H](c1ccc(C(F)(F)F)cc1)c1ncccc1C(F)(F)F)c1ccc2c(c1)C(=O)CC2` [Example 245, (S)-3-oxo-N-((4-(trifluoromethyl)phenyl)(3-(trifluoromethyl)pyridin-2-yl)methyl)-2,3-dihydro-1H-indene-5-carboxamide], the half-inhibitory concentration (IC50) was 77.4 nM.
With `O=C(N[C@@H](c1ccc(C(F)(F)F)cc1)c1ncccc1C(F)(F)F)c1ccccn1` [Example 228, (S)-N-((4-(trifluoromethyl)phenyl)(3-(trifluoromethyl)pyridin-2-yl)methyl)picolinamide], the IC50 came to 39.7 nM.
As for `O=C(N[C@@H](c1ccc(C(F)(F)F)cc1)c1ncccc1F)c1ccc2cccnc2c1` (stereo in doubt) [Example 204, N-((3-fluoropyridin-2-yl)(4-(trifluoromethyl)phenyl)methyl)quinoline-7-carboxamide], the IC50 was 104 nM.
In the case of `Cc1cc(F)cc([C@H](NC(=O)c2ccc(=O)[nH]c2)c2ncccc2F)c1` [Example 325, (S)-N-((3-fluoro-5-methylphenyl)(3-fluoropyridin-2-yl)methyl)-6-oxo-1,6-dihydropyridine-3-carboxamide], the IC50 is 644 nM.
Regarding `N#Cc1cccnc1[C@@H](NC(=O)c1ccc2cccnc2c1)c1ccc(C(F)(F)F)cc1` [Example 278, (S)—N-((3-Cyanopyridin-2-yl)(4-(trifluoromethyl)phenyl)-methyl)quinoline-7-carboxamide], the concentration for half-maximal inhibition (IC50) was found to be 317 nM.
As to `CN(C)c1ccc(C(=O)N[C@@H](c2ccc(C(F)(F)F)cc2)c2ncccc2C(F)(F)F)cc1` [Example 196, (S)-4-(dimethylamino)-N-((4-(trifluoromethyl)phenyl)(3-(trifluoromethyl)pyridin-2-yl)methyl)benzamide], the IC50 came out at 67.1 nM.
In the case of `Cn1cc(C(=O)N[C@@H](c2ccc(OC(F)(F)F)c(F)c2)c2ccccn2)ccc1=O` [Example 294, (S)-N-((3-fluoro-4-(trifluoromethoxy)phenyl)(pyridin-2-yl)methyl)-1-methyl-6-oxo-1,6-dihydropyridine-3-carboxamide], the IC50 amounted to 14.5 nM.
Consider `O=C(N[C@@H](c1ccc(C(F)(F)F)cc1)c1ncccc1C(F)(F)F)c1cc2ccccc2s1` [Example 222, (S)-N-((4-(trifluoromethyl)phenyl)(3-(trifluoromethyl)pyridin-2-yl)methyl)benzo[b]thiophene-2-carboxamide], for which the IC50 worked out at 119 nM.
As to `COc1ccc(C(NC(=O)c2ccc(=O)[nH]c2)c2ccc(OC(F)(F)F)c(F)c2)nc1` (centres unmarked) [Example 421], the IC50 was 611 nM.
As for `Cc1cccnc1[C@@H](NC(=O)c1ccc(=O)[nH]c1)c1ccc(OC(F)(F)F)c(F)c1` [Example 347, (S)-N-((3-fluoro-4-(trifluoromethoxy)phenyl)(3-methylpyridin-2-yl)methyl)-6-oxo-1,6-dihydropyridine-3-carboxamide], the IC50 is 10 nM.
`O=C(O)Cn1cc(C(=O)N[C@@H](c2ccc(C(F)(F)F)cc2)c2ncccc2F)ccc1=O` [Example 429, (S)-2-(5-(((3-Fluoropyridin-2-yl)(4-(trifluoromethyl)phenyl)methyl)carbamoyl)-2-oxopyridin-1(2H)-yl)acetic Acid]: the IC50 is 2660 nM.
